Results from patent US7351531B2, “Molecules capable of binding to telomere and the like and method with the use of the same” (Japan Science and Technology Corporation, priority 2001, dated 2008).

Legend:
[1] = test system: normal G-C base pair in 52-mer duplex DNA; assay: DNase I footprinting titration of 52-mer duplex DNA, normal G-C site; type: binding; settings: concentration 0 to 500 μM, FIG. 1
Method: (§1) A 5′-^32P-labeled 52-mer duplex DNA having a GC base pair, GA mismatch base pair and a GG mismatch base pair in the duplex DNA was prepared. The partial listing of the corresponding moieties is shown below.
(§2) The inventors have analyzed the duplex DNA through DNase I (DNA hydrolase) footprinting titration for the sites where the DNA cleavage by DNase I was inhibited in the presence of a varying concentration of the compound of formula (III).
In FIG. 1, the concentration of the compound of formula (III) varies from 0 to 500 μM from the left to the right. The sites cleaved with the DNase I (DNA hydrolase) are seen black, while those protected from cleavage with the DNase I are seen white.
(§3) ^32P-5′-end-labeled 52-mer DNA was hybridized into a duplex DNA with G-G and G-A mismatches (see the right side of FIG. 1).
(§4) A varying concentration of the compound obtained in Example 1 was added to the duplex DNA, and the DNA was analyzed through DNase I footprinting titration.
Concretely, the duplex DNA (<4 nM strand concentration) was incubated at 4° C. for 12 hours along with a varying concentration of the compound obtained in Example 1, in a tris-HCl buffer (10 mM, pH 7.6) that contains NaCl (100 mM) and MgCl2(5 mM). To this was added 0.2 U DNaseI (DNA hydrolase), and this was further incubated at 25° C. for 8 minutes. […]

[2] = test system: single-stranded human telomere sequence DNA (22-mer 5'-AGGGTTAGGGTTAGGGTTAGGG3'); assay: Binding titration with single-stranded human telomere sequence DNA (22-mer, FIG. 4)
Method: Samples of single-stranded human telomere sequence DNA were tested for the inhibition of DNA cleavage by DNase I (DNA hydrolase) through footprinting titration in the presence of a varying concentration of the compound of formula (III) (this is hereinafter referred to as naphthyridine dimer or simply as ND).
The test result in FIG. 4 is similar to that in FIG. 2. The vertical axis of FIG. 4 indicates the cleavage inhibition ratio derived from the cleavage band intensity. […] The horizontal axis of FIG. 4 indicates the ratio of the G-G mismatch concentration to the concentration (M) of the compound of formula (III) added to the test system, [GG]/[ND] in which ND means the compound of formula (III).
A solution of a 22-mer oligonucleotide having the following base sequence: • 5′-[…]3′ (SEQ ID NO: 9) in a sodium cacodylate buffer (10 mM, pH 7.0, NaCl 100mM) was heated at 70° C. for 5 minutes, and then gradually cooled so that the oligomer could form a quadraplex structure (see Structure, 263, 1 (1993)). A varying concentration of a naphthyridine dimer was dropwise added to the resulting solution, and the naphthyridine dimer-binding amount was obtained through 360 nm absorptiometry.

[3] = test system: G-A mismatch base pair in 52-mer duplex DNA; assay: DNase I footprinting titration of 52-mer duplex DNA, G-A mismatch site; type: binding; design: effect of inhibiting G-A mismatch site cleavage: dose or concentration left out as unconfirmed
Method: as §1, §2
(§5) The relationship between the cleavage band intensity and the naphthyridine concentration in FIG. 1 is plotted to give a graph as in FIG. 2. The vertical axis of FIG. 2 indicates the cleavage inhibition ratio derived from the cleavage band intensity. […] The horizontal axis of FIG. 2 indicates the concentration (M) of the compound of formula (III) added to the test system. In FIG. 2, the closed circles (●) indicate the G-G mismatch site, and the closed triangles (▴) indicate the G-A mismatch site.
as §3, §4
(§6) Concretely, the duplex DNA (<4 nM strand concentration) was incubated at 4° C. for 12 hours along with a varying concentration of the compound obtained in Example 1, in a tris-HCl buffer (10 mM, pH 7.6) that contains NaCl (100 mM) and MgCl2(5 mM). To this was added 0.2 U DNaseI (DNA hydrolase), and this was further incubated at 25° C. for 8 minutes. Next, this was precipitated in ethanol to recover the DNA, which was then subjected to electrophoresis with a gel that contains 12% polyacrylamide and 7 M urea.

[4] = test system: G-G mismatch base pair in 52-mer duplex DNA; assay: DNase I footprinting titration of 52-mer duplex DNA, G-G mismatch site; type: binding
Method: as §1, §2, §5, §3, §4, §6

[5] = 52-mer duplex DNA, DNase I footprinting titration

protection of normal G-C base pair from DNase I cleavage [1]: cleaved by DNase I | association constant to the G-G mismatch (Ka(GGmis)) in human telomere sequence ([2]; 22-mer, sodium cacodylate buffer pH 7.0, NaCl 100 mM, Scatchard plot): 420000 M⁻¹ | concentration ratio [GG]/[ND] at which G-G mismatch site cleavage is almost completely inhibited ([2]; FIG. 4): about 3 | concentration ratio [GG]/[ND] at which compound is already effective for inhibiting cleavage of the G-G mismatch site ([2]; FIG. 4, relatively low concentration): 0.5 | effect of inhibiting G-A mismatch site cleavage [3]: about 90% | association constant to the G-A mismatch (Ka(GAmis)) [3, 5]: 16300 M⁻¹ | concentration at which compound becomes effective for inhibiting cleavage of the G-A mismatch site ([3]; FIG. 2): about 10^−6 M | association constant to the G-G mismatch (Ka(GGmis)) [4, 5]: 1.13e+07 M⁻¹ | concentration at which G-G mismatch site cleavage by DNase I is almost completely inhibited ([4]; FIG. 2): about 10^−5 M | ratio of the association constants (Ka(GGmis))/(Ka(GAmis)) ([4]; G-G versus G-A mismatch, 52-mer duplex DNA): 696
SMILES: Cc1ccc2ccc(NC(=O)CCNCCC(=O)Nc3ccc4ccc(C)nc4n3)nc2n1 [compound of formula (III), dinaphthyridinamide]
